Measurements as given in patent publication US20240408183A1, “KYNURENINE AMINOTRANSFERASE AND PRODUCTS THEREOF FOR THE TREATMENT OF INFLAMMATORY BOWEL DISEASES” (Institut National De Recherche Pour L'Agriculture, …, priority 2021, published 2024).

Test system: mice submitted to DSS-induced colitis
Experiment: DSS-induced colitis model in mice
Assay type: in vivo, mouse (C57BL/6JRj)
Details: for protection against DSS-induced colitis (body weight loss, DAI, colon length, histological score): FIG. 2, oral administration, n=16-20 mice per group; for protection from colitis: intraperitoneal injection, FIG. 3, n=10 mice per group; for colonic expression of pro-inflammatory cytokines such as IL-1 or IL-17: oral treatment, measured by Nanostring technology, data not shown; for colon length / histological score: day twelve
Description: C57BL/6JRj from Janvier lab, 7 weeks old, were housed in our specific pathogen free animal facility at IERP (INRA, Jouy en Josas, France). Five to ten female mice per group were used in all experiment, were maintained in a temperature controlled (23° C.) facility with a strict 12 h light/dark cycles and were given free access to food and water. After one acclimation week, we changed water with DSS 2% (MP Biomedical) during 7 days (day 0 to day 7), and a
recovery period was practiced until day 12 (during 5 days). Body weight loss and DAI (disease activity index) were performed daily. After 12 days the samples were harvested.
Colon distal part (cut in three parts) was harvested at day 12 after DSS model and put directly in PFA (Rothi®—Histofix 4%) during 48 h and transferred in ethanol 70% until the standard pre-fixation automat and paraffin embedded. HES coloration was practiced on 5Im cut.
Data were analyzed using Prism version 7 (Graphpad Software, San Diego, USA). The non-parametric Mann Withney test or the parametric one-way ANOVA tests with multiple Bonferroni's comparison tests were performed. Values are expressed as mean±SEM. Statistical significance was defined at a p-value ****<0.0001, ***<0.001, **<0.01, *<0.05.

[1] = oral, each day, 8 mg of KYNA / 6 mg of XANA per mouse
[2] = oral, each day, 8 mg of KYNA / 6 mg of XANA per mouse, measured daily, DSS 2%

| Structure (SMILES) | protection against DSS-induced colitis (body weight loss, DAI, colon length, histological score) | protection from colitis | colonic expression of pro-inflammatory cytokines such as IL-1 or IL-17 | colon length [1] | histological score [1] | activity index of colitis (DAI) [2] | weight loss [2] |
| --- | --- | --- | --- | --- | --- | --- | --- |
| O=C(O)c1cc(=O)c2ccccc2[nH]1 [KYNA, kynurenic acid, reference compound] | protect against DSS-induced colitis | induces protection similar to that observed when these metabolites are given orally | reduced | longer | lower | anti-inflammatory effect | anti-inflammatory effect |
| O=C(O)c1cc(O)c2cccc(O)c2n1 [XANA, xanthurenic acid] | protect against DSS-induced colitis | induces protection similar to that observed when these metabolites are given orally | reduced | longer | lower | – | anti-inflammatory effect |
